Starred links: 1 amine or outer side, 2 acyl side, 3 side chain; linkers in the order of their positions; H or OH if unused. Positions of bridges follow the written chain, without caps; N, C: chain ends. Residues, ends and D or L forms follow the SMILES beside them. Phenylene(1,4-NHCOCH2)2 = O=C(C[*:1])Nc1ccc(NC(=O)C[*:2])cc1
Assay: Measurement of LogD (CHI logD by HPLC)
Assay type: physicochemical
Details: CHI log D, 50 mM ammonium acetate pH 7.4 / acetonitrile gradient, C-18 column, 25° C.
Method: Measurement of LogD: LogD values were measured on a Agilent 1260 HPLC with UV detector (254, 220 nm), using a Gemini NX C-18 50×3 mm column (Phenomenex) with a 6-minute 0-100% mobile phase gradient of A) 50 mM ammonium acetate pH 7.4 and B) Acetonitrile at 25° C. with a flow rate of 1 mL/min and injection volume of 3-5 uL.

chromatographic logD | Compound
0.57 | CC(C)C[C@@H]1NC(=O)[C@H](C)NC(=O)[C@H](C)NC(=O)[C@H](Cc2c[nH]c3ccccc23)NC(=O)[C@H](CCC(=O)O)NC(=O)[C@@H](NC(=O)[C@H](CCCNC(=N)N)NC(=O)[C@H](Cc2c[nH]cn2)NC(=O)[C@@H](NC(=O)[C@H](C)NC(=O)[C@@H]2CCCN2C(=O)[C@H](CC(=O)O)NC(=O)[C@H](C)N)[C@@H](C)O)CSCC(=O)Nc2ccc(cc2)NC(=O)CSC[C@@H](C(=O)N[C@@H](CCC(=O)O)C(=O)N[C@@H](CC(C)C)C(=O)N[C@H](C(N)=O)C(C)C)NC(=O)[C@H](Cc2c[nH]cn2)NC1=O [Compound 1]
0.62 | CC[C@H](C)[C@@H]1NC(=O)[C@H](CC(C)C)NC(=O)[C@H](C)NC(=O)[C@H](C)NC(=O)[C@H](Cc2c[nH]cn2)NC(=O)[C@H](CCC(=O)O)NC(=O)[C@@H](NC(=O)[C@H](C)NC(=O)[C@H](Cc2c[nH]c3ccccc23)NC(=O)[C@H](CC(C)C)NC(=O)[C@H](C)NC(=O)[C@@H]2CCCN2C(=O)[C@H](CC(=O)O)NC(=O)[C@H](C)N)CSCC(=O)Nc2ccc(cc2)NC(=O)CSC[C@@H](C(=O)N[C@@H](CCC(=O)O)C(=O)N[C@H](C(=O)N[C@@H](CCC(N)=O)C(N)=O)[C@@H](C)O)NC1=O [Compound 2] (H-ADPALWACEHAALICETQ-NH2; linker 8-15 via Phenylene(1,4-NHCOCH2)2; N-terminus and C-terminus assumed)
0.92 | CC[C@H](C)[C@@H]1NC(=O)[C@@H](NC(=O)[C@H](CCC(=O)O)NC(=O)[C@H](CC(=O)O)NC(=O)[C@H](CCC(=O)O)NC(=O)[C@H](C)NC(=O)[C@@H]2CCCN2C(=O)[C@H](CC(=O)O)NC(=O)[C@H](C)N)CSCC(=O)Nc2ccc(cc2)NC(=O)CSC[C@@H](C(=O)N[C@@H](CCCNC(=N)N)C(=O)N[C@@H](Cc2c[nH]c3ccccc23)C(=O)N[C@@H](Cc2c[nH]c3ccccc23)C(N)=O)NC(=O)[C@H](CCSC)NC(=O)[C@H](Cc2c[nH]cn2)NC(=O)[C@H](C)NC(=O)[C@H](C)NC(=O)[C@H](CC(C)C)NC1=O [Compound 8] (H-ADPAEDECILAAHMCRWW-NH2; linker 8-15 via Phenylene(1,4-NHCOCH2)2; N-terminus and C-terminus assumed)
0.29 | CC[C@H](C)[C@@H]1NC(=O)[C@@H](NC(=O)[C@H](CC(=O)O)NC(=O)[C@H](CCC(=O)O)NC(=O)[C@H](CC(=O)O)NC(=O)[C@H](C)NC(=O)[C@@H]2CCCN2C(=O)[C@H](CC(=O)O)NC(=O)[C@H](C)N)CSCC(=O)Nc2ccc(cc2)NC(=O)CSC[C@@H](C(=O)N[C@@H](CCC(N)=O)C(=O)N[C@@H](Cc2c[nH]c3ccccc23)C(=O)N[C@@H](CC(=O)O)C(N)=O)NC(=O)[C@H]([C@@H](C)CC)NC(=O)[C@H](Cc2c[nH]cn2)NC(=O)[C@H](C)NC(=O)[C@H](C)NC(=O)[C@H](CC(C)C)NC1=O [Compound 9] (H-ADPADEDCILAAHICQWD-NH2; linker 8-15 via Phenylene(1,4-NHCOCH2)2; N-terminus and C-terminus assumed)
0.39 | CC[C@H](C)[C@@H]1NC(=O)[C@H](CC(C)C)NC(=O)[C@H](C)NC(=O)[C@H](C)NC(=O)[C@H](Cc2c[nH]cn2)NC(=O)[C@H](CCC(=O)O)NC(=O)[C@@H](NC(=O)[C@H](Cc2c[nH]cn2)NC(=O)[C@H](Cc2c[nH]c3ccccc23)NC(=O)[C@H](CCC(N)=O)NC(=O)[C@H](C)NC(=O)[C@@H]2CCCN2C(=O)[C@H](CC(=O)O)NC(=O)[C@H](C)N)CSCC(=O)Nc2ccc(cc2)NC(=O)CSC[C@@H](C(=O)N[C@@H](CCC(=O)O)C(=O)N[C@@H](CC(C)C)C(=O)N[C@@H](CC(=O)O)C(N)=O)NC1=O [Compound 10] (H-ADPAQWHCEHAALICELD-NH2; linker 8-15 via Phenylene(1,4-NHCOCH2)2; N-terminus and C-terminus assumed)
0.47 | CC(C)C[C@@H]1NC(=O)[C@H](C)NC(=O)[C@H](C)NC(=O)[C@H](Cc2c[nH]cn2)NC(=O)[C@H](CCC(=O)O)NC(=O)[C@@H](NC(=O)[C@H](CCC(N)=O)NC(=O)[C@H](Cc2c[nH]c3ccccc23)NC(=O)[C@@H]2CCCN2C(=O)[C@H](C)NC(=O)[C@@H]2CCCN2C(=O)[C@H](CC(=O)O)NC(=O)[C@H](C)N)CSCC(=O)Nc2ccc(cc2)NC(=O)CSC[C@@H](C(=O)N[C@@H](CCC(=O)O)C(=O)N[C@@H](CC(C)C)C(=O)N[C@@H](CCC(=O)O)C(N)=O)NC(=O)[C@H](CC(C)C)NC1=O [Compound 11] (H-ADPAPWQCEHAALLCELE-NH2; linker 8-15 via Phenylene(1,4-NHCOCH2)2; N-terminus and C-terminus assumed)
0.39 | CC[C@H](C)[C@@H]1NC(=O)[C@H](CC(C)C)NC(=O)[C@H](C)NC(=O)[C@H](C)NC(=O)[C@H](Cc2c[nH]cn2)NC(=O)[C@H](CCC(=O)O)NC(=O)[C@@H](NC(=O)[C@H](CCC(=O)O)NC(=O)[C@H](Cc2c[nH]c3ccccc23)NC(=O)[C@H](CC(=O)O)NC(=O)[C@H](C)NC(=O)[C@@H]2CCCN2C(=O)[C@H](CC(=O)O)NC(=O)[C@H](C)N)CSCC(=O)Nc2ccc(cc2)NC(=O)CSC[C@@H](C(=O)N[C@@H](CC(=O)O)C(=O)N[C@@H](C)C(=O)N[C@@H](CCSC)C(N)=O)NC1=O [Compound 12] (H-ADPADWECEHAALICDAM-NH2; linker 8-15 via Phenylene(1,4-NHCOCH2)2; N-terminus and C-terminus assumed)
0.8 | CC[C@H](C)[C@@H]1NC(=O)[C@H](CC(C)C)NC(=O)[C@H](C)NC(=O)[C@H](C)NC(=O)[C@H](Cc2c[nH]cn2)NC(=O)[C@H](CCC(=O)O)NC(=O)[C@@H](NC(=O)[C@H](CC(C)C)NC(=O)[C@H](Cc2c[nH]c3ccccc23)NC(=O)[C@H](Cc2ccc(O)cc2)NC(=O)[C@H](C)NC(=O)[C@@H]2CCCN2C(=O)[C@H](CC(=O)O)NC(=O)[C@H](C)N)CSCC(=O)Nc2ccc(cc2)NC(=O)CSC[C@@H](C(=O)N[C@@H](CCC(=O)O)C(=O)N[C@H](C(=O)N[C@@H](CCC(=O)O)C(N)=O)C(C)C)NC1=O [Compound 13] (H-ADPAYWLCEHAALICEVE-NH2; linker 8-15 via Phenylene(1,4-NHCOCH2)2; N-terminus and C-terminus assumed)
0.47 | CC[C@H](C)[C@H](NC(=O)[C@H](CCC(=O)O)NC(=O)[C@@H]1CSCC(=O)Nc2ccc(cc2)NC(=O)CSC[C@H](NC(=O)[C@@H]2CCCN2C(=O)[C@H](Cc2c[nH]c3ccccc23)NC(=O)[C@H](CCC(N)=O)NC(=O)[C@H](C)NC(=O)[C@@H]2CCCN2C(=O)[C@H](CC(=O)O)NC(=O)[C@H](C)N)C(=O)N[C@@H](CCC(=O)O)C(=O)N[C@@H](Cc2c[nH]cn2)C(=O)N[C@@H](C)C(=O)N[C@@H](C)C(=O)N[C@@H](CC(C)C)C(=O)N[C@@H](CC(C)C)C(=O)N1)C(=O)N[C@@H](CCC(=O)O)C(N)=O [Compound 14] (H-ADPAQWPCEHAALLCEIE-NH2; linker 8-15 via Phenylene(1,4-NHCOCH2)2; N-terminus and C-terminus assumed)

Compound | chromatographic logD
CC(C)C[C@@H]1NC(=O)[C@H](C)NC(=O)[C@H](C)NC(=O)[C@H](Cc2c[nH]c3ccccc23)NC(=O)[C@H](CCC(=O)O)NC(=O)[C@@H](NC(=O)[C@H](CCCNC(=N)N)NC(=O)[C@H](Cc2c[nH]cn2)NC(=O)[C@@H](NC(=O)[C@H](C)NC(=O)[C@@H]2CCCN2C(=O)[C@H](CC(=O)O)NC(=O)[C@H](C)N)[C@@H](C)O)CSCC(=O)Nc2cc(Cl)c(cc2Cl)NC(=O)CSC[C@@H](C(=O)N[C@@H](CCC(=O)O)C(=O)N[C@@H](CC(C)C)C(=O)N[C@H](C(N)=O)C(C)C)NC(=O)[C@H](Cc2c[nH]cn2)NC1=O [Compound 33] | 0.68
